Broadly, the pIC50 is the IC50 on a negative log10 scale, so that one unit is a factor of ten. Low values mean a large IC50, high ones a small IC50.

pIC50: −log10 of the molar value. Activity calls are given as the source filed them. The calls are words filed in the database; no cut-off is given here. Where only a bound is given, the exact number is not on record here.

Sequence of Egl nine homolog 1 (Homo sapiens) (Q9GZT9 2-426 limits assumed): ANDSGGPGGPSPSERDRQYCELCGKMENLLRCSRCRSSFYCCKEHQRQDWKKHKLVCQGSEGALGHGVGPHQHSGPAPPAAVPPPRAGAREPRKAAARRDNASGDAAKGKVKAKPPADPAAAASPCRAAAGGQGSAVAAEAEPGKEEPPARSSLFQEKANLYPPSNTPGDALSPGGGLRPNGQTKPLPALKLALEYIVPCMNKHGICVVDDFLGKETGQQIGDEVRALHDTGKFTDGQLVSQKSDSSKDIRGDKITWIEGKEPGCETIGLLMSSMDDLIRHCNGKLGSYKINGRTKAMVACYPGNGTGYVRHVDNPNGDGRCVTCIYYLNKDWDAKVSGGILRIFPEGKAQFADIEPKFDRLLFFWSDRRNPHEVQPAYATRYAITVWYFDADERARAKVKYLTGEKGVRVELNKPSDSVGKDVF
Sequence of Prolyl hydroxylase EGLN2 (Q96KS0 whole entry): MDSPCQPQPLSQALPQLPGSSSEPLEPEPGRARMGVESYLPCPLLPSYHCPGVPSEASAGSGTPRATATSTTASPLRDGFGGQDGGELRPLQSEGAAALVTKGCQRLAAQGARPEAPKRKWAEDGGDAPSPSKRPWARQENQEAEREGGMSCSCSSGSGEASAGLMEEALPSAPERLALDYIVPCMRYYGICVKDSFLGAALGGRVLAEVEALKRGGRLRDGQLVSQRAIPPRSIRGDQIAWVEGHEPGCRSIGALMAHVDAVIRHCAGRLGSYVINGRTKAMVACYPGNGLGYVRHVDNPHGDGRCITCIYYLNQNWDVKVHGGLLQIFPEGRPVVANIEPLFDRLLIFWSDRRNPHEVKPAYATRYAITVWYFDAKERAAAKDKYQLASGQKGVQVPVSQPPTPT

One assay addresses Prolyl hydroxylase EGLN2 (Homo sapiens, UniProt Q96KS0). Kind of assay: Inhibition of PHD1 by HTRF assay.
`O=C(O)CNC(=O)c1ccccc1O` [SALICYLURIC ACID] gave a pIC50 below 3.00.

Consider `O=C(O)c1ccnc(C(=O)O)c1`, for which the pIC50 is 3.20. The compound `O=C(O)CNC(=O)c1ccccn1` gave a pIC50 below 3.00. As for `O=C(O)C(=O)c1cccc(O)c1`, the pIC50 was below 3.00. Take `O=C(O)CNC(=O)c1ncccc1O`: the negative logarithm of the IC50 (pIC50) is 4.04. In turn, `O=C(O)C(S)c1cccc(O)c1` (stereo not drawn) showed a pIC50 of 3.30. Against the preceding compound, the pIC50 is 0.74 log units lower.

Another assay has as its target Egl nine homolog 1 (Homo sapiens) (UniProt Q9GZT9). As to the kind of experiment: Inhibition of PHD2 at 1 mM by HTRF assay. On the technique in general: Time-resolved FRET reads energy transfer from a long-lived donor to a nearby acceptor.
For `O=C(NO)c1cccc(O)c1`, the inhibition result was “inactive”. As to `O=C(O)c1ccnc(C(=O)O)c1`, the inhibition result is “inactive”. `O=C(O)CNC(=O)c1ccccn1`: the inhibition entry was “inactive”. With `O=C(O)C(=O)c1cccc(O)c1`, the inhibition result is “inactive”. On to `O=C(O)CNC(=O)c1ncccc1O`, for which the inhibition entry is “inactive”. Turning to `O=C(O)C(S)c1cccc(O)c1` (stereo not drawn), the inhibition entry was “inactive”.

Test system in the next assay: not listed separately
Kind of assay: Inhibition of FIH by HTRF assay.
In the case of `O=C(O)c1ccnc(C(=O)O)c1`, the inhibition entry was “Active”.
